Assay results as given in patent US5284837A, “Derivatives of purine, process for their preparation and a pharmaceutical preparation” (Medivir AB, priority 1988, dated 1994).
Where a name gives a salt, the structure may show the parent alone. Read-outs that look alike come from different tables or passages of the source.

Legend:
[1] = tested on: HIV (HTLV-IIIB) in H9 cells; assay: Effect of compounds on HIV multiplication in H9 cells (Test I); type: cell-based, human immunodeficiency virus (HTLV-IIIB); conditions: 6-7 days, read-out: Concentration (μM) for 50% inhibition (IC50) of human immuno deficiency virus multiplication in cell culture
Protocol: Materials and Methods: HIV Infection of H9 Cells H9 cells, 10^5 cells per well on a 24 well plate, suspended in 2 ml RPMI-medium containing 10% fetal calf serum, 100 μg/ml pencillin, 10 μg/ml streptomycin sulfate and 2 μg/ml polybrene are exposed to HIV (HTLV-IIIB) and different concentrations of the test compounds. The plates are incubated at 37° C. in 5% CO2 for 6-7 days. The contents in each well is then homogenized with a pipette and transferred to a centrifuge tube. After centrifugation for 10 min at 1500 rpm the supernatant is removed and the cell pellet is analyzed by fixing in methanol on glass plates. Human HIV positive serum diluted 1:80 or 1:160 is added and incubated for 30 min at 37° C. The pate is then washed with phosphate-buffered saline (PBS) containing Ca2+ and Mg2+. Sheep antihuman conjugate (FITC) is added and after a new incubation the plate is again washed with PBS. Contrast staining is done with Evans blue and after drying the frequency of HIV antigen containing cells is determined in a microscope.

[2] = Oral bioavailability in rat (Test III); type: in vivo; conditions: for plasma concentration of VSA 671 after VSA 671 has been given as 6-deoxy prodrug or ester: in words
Protocol: (§1) TEST III--ORAL BIOAVAILABILITY
(§2) Oral bioavailability was determined by dosing the animals (cynomologous monkeys and rats) intravenously and orally on separate occasions with the compounds. Blood samples were taken after appropriate intervals for determination of drug level in plasma. Appropriate pharmacokinetic calculations were then carried out based on plasma concentration against time relationship.

[3] = Cellular toxicity, inhibition of F5000 cell multiplication (Test II); type: cell-based; conditions: human, f5000 cells
Protocol: (§3) Test II--Cellular Toxicity
(§4) F5000 cells, which are human embryo cells, 1×10^5 cells per plate, are incubated in Eagle's minimal essential medium, supplemented with Earle's salts, non-essential amino acids, 10% fetal calf serum, 10 mM hepes, 70 mg/l penicillin and 100 mg/l streptomycin, in absence or presence of test compounds. The number of cells per plate is determined after 48 h. Cells incubated in the absence of test compounds underwent one cell division cycle.

[4] = Cellular toxicity, inhibition of H9 cell multiplication (Test II); type: cell-based; conditions: human, H9 cells
Protocol: as §3
H9 cells, 2×10^7 cells per plate, are incubate in RPMI-1640 medium containing 10% fetal calf serum, 70 mg/l penicillin, 100 mg/l streptomycin and 10 mM hepes, in absence or presence of test compounds. The number of cells per plate is determined after 48 h. Cells incubated in the absence of test compounds then underwent two cell division cycles.
as §4

[5] = Oral bioavailability in monkey (Test III); type: in vivo, cynomologous monkeys
Protocol: as §1, §2

[6] = Human immunodeficiency virus 1, IIIB, H9, H9 cells
[7] = plasma AUC relative to AUC after intravenously given VSA 671, read-out: Oral bioavailability F of compound determined as VSA 671

In the case of `Nc1nc2c(ncn2CC(CO)CCO)c(=O)[nH]1` (racemic) [VSA 671, 9-[4-hydroxy-2-(hydroxymethyl)butyl]guanine], the IC50 [1, 6] is reported as 1 to 10 µM, the bioavailability [2, 7] is reported as 11% and the inhibition at 48 h, 1000 µM ([3]; 1000 μM) is reported as 55%. It also gave an inhibition at 48 h, 500 µM ([4]; 500 μM) of 55% and a bioavailability [5, 7] of 10%.

For `Nc1nc2c(ncn2CC(CO)CCO)c(=O)[nH]1` (single isomer, unassigned; (+)) [VSB 648, (+)-9-[4-hydroxy-2(hydroxymethyl)butyl]-guanine], the IC50 ([1]; H9 cells) was 1 to 5 µM.

With `Nc1nc2c(ncn2CC(CO)CCO)c(=O)[nH]1` (single isomer, unassigned; (-)) [VSB 647, (-)-9-(4-Hydroxy-2-hydroxymethylbutyl)guanine] the IC50 ([1]; H9 cells) was 0.1 to 7 µM and the inhibition at 48 h, 100 µM ([4]; 100 μM) was 5%.

In the case of `Nc1ncc2ncn(CC(CO)CCO)c2n1` (stereo not drawn) [VSB 212, 2-(2-Aminopurin-9yl)methyl butan-1,4-diol], the “plasma concentration of VSA 671 after VSA 671 has been given as 6-deoxy prodrug or ester” value [2] is reported as “significantly increased”.

Work on `Nc1ncnc2c1ncn2CC(CO)CCO` (stereo not drawn) [VSC 600, 9-(4-Hydroxy-2-hydroxymethylbutyl)adenine] yielded an IC50 [1, 6] of 10 µM, an inhibition at 48 h, 500 µM ([3]; 500 μM) of 25% and an inhibition at 48 h, 200 µM ([4]; 200 μM) of 25%.

For `CC(=O)OCCC(COC(C)=O)Cn1cnc2cnc(N)nc21` (stereo not drawn) [VSC 610, 2-(2-Aminopurin-9-yl)methylbutane-1,4-diol diacetate], the “plasma concentration of VSA 671 after VSA 671 has been given as ester of 6-deoxy prodrug” value ([5]; in words) was “significantly increased”.

With `CC(=O)OCCC(COC(C)=O)Cn1cnc2c(=O)[nH]c(N)nc21` (stereo not drawn) [VSC 640, 9-[4-acetoxy-2-(acetoxymethyl)butyl]guanine.HCl] the “plasma concentration of VSA 671 after VSA 671 has been given as 6-deoxy prodrug or ester” value [2] was “significantly increased”.

For `CCC(=O)OCCC(COC(=O)CC)Cn1cnc2c(=O)[nH]c(N)nc21` (stereo not drawn) [VSC 641, 9-[4-propionoxy-2-(propionoxymethyl)butyl]guanine.HCl], the “plasma concentration of VSA 671 after VSA 671 has been given as 6-deoxy prodrug or ester” value [2] was “significantly increased”.
